Reference: patent US20260262643A1, “HERBICIDAL BENZOXAZINES” (FMC CORPORATION, priority 2022, published 2026)

Assays:
barnyardgrass [1] = assay: Test C preemergence; format: in vivo, Echinochloa crusgalli; settings: for Plant response rating, Barnyardgrass: Preemergence; for Barnyardgrass plant response rating: preemergence
In short: (§1)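 Seeds in loam–sand blend received preemergence directed soil spray of test chemicals in non-phytotoxic solvent with surfactant; postemergence treatment was applied at one- to two-leaf stage (2–10 cm). After 10 days in greenhouse, injury rated visually versus untreated controls, 0 (no effect) to 100 (complete control).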

blackgrass [2] = assay: Test C preemergence; format: in vivo, Alopecurus myosuroides; settings: for Plant response rating, Blackgrass: Preemergence; for Blackgrass plant response rating: preemergence
In short: as §1

corn [3] = assay: Test C preemergence; format: in vivo, Zea mays; settings: for Plant response rating, Corn: Preemergence; for Corn plant response rating: preemergence
In short: as §1

green foxtail [4] = assay: Test C preemergence; format: in vivo, Setaria viridis; settings: for Plant response rating, Foxtail, Green: Preemergence; for Foxtail, Green plant response rating: preemergence
In short: as §1

kochia [5] = assay: Test C preemergence; format: in vivo, Bassia scoparia; settings: for Plant response rating, Kochia: Preemergence; for Kochia plant response rating: preemergence
In short: as §1

oat, wild [6] = assay: Test C preemergence; format: in vivo, Avena fatua; settings: for Plant response rating, Oat, Wild: Preemergence; for Oat, Wild plant response rating: preemergence
In short: as §1

pigweed, palmer [7] = assay: Test C preemergence; format: in vivo, Amaranthus palmeri; settings: for Plant response rating, Pigweed, Palmer: Preemergence; for Pigweed, Palmer plant response rating: preemergence
In short: as §1

ragweed [8] = assay: Test C preemergence; format: in vivo, Ambrosia artemisiifolia; settings: for Plant response rating, Ragweed: Preemergence; for Ragweed plant response rating: preemergence
In short: as §1

ryegrass, Italian [9] = assay: Test C preemergence; format: in vivo, Lolium multiflorum; settings: for Plant response rating, Ryegrass, Italian: Preemergence; for Ryegrass, Italian plant response rating: preemergence
In short: as §1

soybean [10] = assay: Test C preemergence; format: in vivo, Glycine max; settings: for Plant response rating, Soybean: Preemergence; for Soybean plant response rating: preemergence
In short: as §1

wheat [11] = assay: Test C preemergence; format: in vivo, Triticum aestivum; settings: for Plant response rating, Wheat: Preemergence; for Wheat plant response rating: preemergence
In short: as §1

barnyardgrass [12] = assay: Test C postemergence; format: in vivo, Echinochloa crusgalli; settings: 10 days
In short: as §1

blackgrass [13] = assay: Test C postemergence; format: in vivo, Alopecurus myosuroides; settings: 10 days
In short: as §1

corn [14] = assay: Test C postemergence; format: in vivo, Zea mays; settings: 10 days
In short: as §1

green foxtail [15] = assay: Test C postemergence; format: in vivo, Setaria viridis; settings: 10 days
In short: as §1

kochia [16] = assay: Test C postemergence; format: in vivo, Bassia scoparia; settings: 10 days
In short: as §1

oat, wild [17] = assay: Test C postemergence; format: in vivo, Avena fatua; settings: 10 days
In short: as §1

pigweed, palmer [18] = assay: Test C postemergence; format: in vivo, Amaranthus palmeri; settings: 10 days
In short: as §1

ragweed [19] = assay: Test C postemergence; format: in vivo, Ambrosia artemisiifolia; settings: 10 days
In short: as §1

ryegrass, Italian [20] = assay: Test C postemergence; format: in vivo, Lolium multiflorum; settings: 10 days
In short: as §1

soybean [21] = assay: Test C postemergence; format: in vivo, Glycine max; settings: 10 days
In short: as §1

wheat [22] = assay: Test C postemergence; format: in vivo, Triticum aestivum; settings: 10 days
In short: as §1

galium = assay: Test C postemergence; format: in vivo, Galium aparine; settings: 10 days
In short: as §1

horseweed = assay: Test C postemergence; format: in vivo, Erigeron canadensis; settings: 10 days
In short: as §1

barnyardgrass [23] = assay: Test D flooded paddy test; format: in vivo, Echinochloa crus-galli; settings: 250 g ai/ha, applied to paddy water, visual rating after 13 to 14 days, scale 0 to 100 (0 no effect, 100 complete control)
In short: (§2)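 Rating scale 0–100 (0 no effect, 100 complete control), visual, versus controls. Readout at 13–14 days after in-water application to 2-leaf plants in pots flooded 3 cm deep.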

ducksalad = assay: Test D flooded paddy test; format: in vivo, Heteranthera limosa; settings: 250 g ai/ha, applied to paddy water, visual rating after 13 to 14 days, scale 0 to 100 (0 no effect, 100 complete control)
In short: as §2

rice = assay: Test D flooded paddy test; format: in vivo, Oryza sativa; settings: 250 g ai/ha, applied to paddy water, visual rating after 13 to 14 days, scale 0 to 100 (0 no effect, 100 complete control)
In short: as §2

sedge, umbrella = assay: Test D flooded paddy test; format: in vivo, Cyperus difformis; settings: 250 g ai/ha, applied to paddy water, visual rating after 13 to 14 days, scale 0 to 100 (0 no effect, 100 complete control)
In short: as §2

[24] = 500 g ai/ha, visual rating after 10 days, 0 to 100 scale (0 no effect, 100 complete control)
[25] = Test C, 125 g ai/ha, 0 to 100 scale (0 no effect, 100 complete control)
[26] = 125 g ai/ha, postemergence, 0 to 100 scale, 0 no effect, 100 complete control
[27] = Postemergence, 500 g ai/ha, visual 0 to 100 scale (0 no effect, 100 complete control)
[28] = 500 g ai/ha, 0 to 100 scale (0 no effect, 100 complete control)
[29] = 125 g ai/ha, 0 to 100 scale, 0 no effect, 100 complete control
[30] = 500 g ai/ha, postemergence, 0 to 100 scale (0 no effect, 100 complete control)
[31] = Postemergence, 125 g ai/ha, 0 to 100 scale (0 no effect, 100 complete control)

COC[C@H]1CN(C(=O)c2cc(-n3cnc(C(C)(C)C)n3)ccc2C)c2cccc(Cl)c2O1 [Compound 264]
Plant response rating, Barnyardgrass (barnyardgrass [1]; [24]): 100 | Barnyardgrass plant response rating (barnyardgrass [1]; [25]): 70 | Plant response rating, Blackgrass (blackgrass [2]; [24]): 80 | Blackgrass plant response rating (blackgrass [2]; [25]): 40 | Plant response rating, Corn (corn [3]; [24]): 50 | Corn plant response rating (corn [3]; [25]): 30 | Plant response rating, Foxtail, Green (green foxtail [4]; [24]): 100 | Foxtail, Green plant response rating (green foxtail [4]; [25]): 100 | Plant response rating, Kochia (kochia [5]; [24]): 100 | Kochia plant response rating (kochia [5]; [25]): 90 | Plant response rating, Oat, Wild (oat, wild [6]; [24]): 90 | Oat, Wild plant response rating (oat, wild [6]; [25]): 90 | Plant response rating, Pigweed, Palmer (pigweed, palmer [7]; [24]): 100 | Pigweed, Palmer plant response rating (pigweed, palmer [7]; [25]): 100 | Plant response rating, Ragweed (ragweed [8]; [24]): 80 | Ragweed plant response rating (ragweed [8]; [25]): 60 | Plant response rating, Ryegrass, Italian (ryegrass, Italian [9]; [24]): 90 | Ryegrass, Italian plant response rating (ryegrass, Italian [9]; [25]): 90 | Plant response rating, Soybean (soybean [10]; [24]): 80 | Soybean plant response rating (soybean [10]; [25]): 90 | Plant response rating, Wheat (wheat [11]; [24]): 60 | Wheat plant response rating (wheat [11]; [25]): 0 | Plant response rating, Barnyardgrass (barnyardgrass [12]; [26]): 50 | Plant response rating, Barnyardgrass (barnyardgrass [12]; [27]): 90 | Plant response rating, Blackgrass (blackgrass [13]; [26]): 40 | Plant response rating, Blackgrass (blackgrass [13]; [27]): 60 | Plant response rating, Corn (corn [14]; [26]): 30 | Plant response rating, Corn (corn [14]; [27]): 80 | Plant response rating, Foxtail, Green (green foxtail [15]; [26]): 20 | Plant response rating, Foxtail, Green (green foxtail [15]; [27]): 90 | Plant response rating, Kochia (kochia [16]; [26]): 80 | Plant response rating, Kochia (kochia [16]; [27]): 100 | Plant response rating, Oat, Wild (oat, wild [17]; [26]): 10 | Plant response rating, Oat, Wild (oat, wild [17]; [27]): 50 | Plant response rating, Pigweed, Palmer (pigweed, palmer [18]; [26]): 90 | Plant response rating, Pigweed, Palmer (pigweed, palmer [18]; [27]): 90 | Plant response rating, Ragweed (ragweed [19]; [26]): 80 | Plant response rating, Ragweed (ragweed [19]; [27]): 90 | Plant response rating, Ryegrass, Italian (ryegrass, Italian [20]; [26]): 50 | Plant response rating, Ryegrass, Italian (ryegrass, Italian [20]; [27]): 90 | Plant response rating, Soybean (soybean [21]; [26]): 100 | Plant response rating, Soybean (soybean [21]; [27]): 100 | Plant response rating, Wheat (wheat [22]; [26]): 20 | Plant response rating, Wheat (wheat [22]; [27]): 30 | Plant response rating, Galium (galium; [26]): 100 | Plant response rating, Galium (galium; [27]): 100 | Plant response rating, Horseweed (horseweed; [26]): 20 | Plant response rating, Horseweed (horseweed; [27]): 60 | Plant response rating, Barnyardgrass (Flood) (barnyardgrass [23]): 35 | Plant response rating, Ducksalad (Flood) (ducksalad): 75 | Plant response rating, Rice (Flood) (rice): 10 | Plant response rating, Sedge, Umbrella (Flood) (sedge, umbrella): 80

CNc1ncn(-c2cccc(C(=O)N3C[C@H](C)Oc4c(C)cccc43)c2)n1 [Compound 337]
Barnyardgrass plant response rating (barnyardgrass [1]; [28]): 90 | Plant response rating, Barnyardgrass (barnyardgrass [1]; [29]): 30 | Blackgrass plant response rating (blackgrass [2]; [28]): 50 | Plant response rating, Blackgrass (blackgrass [2]; [29]): 20 | Corn plant response rating (corn [3]; [28]): 40 | Plant response rating, Corn (corn [3]; [29]): 0 | Foxtail, Green plant response rating (green foxtail [4]; [28]): 100 | Plant response rating, Foxtail, Green (green foxtail [4]; [29]): 90 | Kochia plant response rating (kochia [5]; [28]): 80 | Plant response rating, Kochia (kochia [5]; [29]): 0 | Oat, Wild plant response rating (oat, wild [6]; [28]): 20 | Plant response rating, Oat, Wild (oat, wild [6]; [29]): 0 | Pigweed, Palmer plant response rating (pigweed, palmer [7]; [28]): 100 | Plant response rating, Pigweed, Palmer (pigweed, palmer [7]; [29]): 0 | Ragweed plant response rating (ragweed [8]; [28]): 50 | Plant response rating, Ragweed (ragweed [8]; [29]): 30 | Ryegrass, Italian plant response rating (ryegrass, Italian [9]; [28]): 90 | Plant response rating, Ryegrass, Italian (ryegrass, Italian [9]; [29]): 50 | Soybean plant response rating (soybean [10]; [28]): 40 | Plant response rating, Soybean (soybean [10]; [29]): 0 | Wheat plant response rating (wheat [11]; [28]): 10 | Plant response rating, Wheat (wheat [11]; [29]): 0 | Plant response rating, Barnyardgrass (barnyardgrass [12]; [30]): 60 | Plant response rating, Barnyardgrass (barnyardgrass [12]; [31]): 10 | Plant response rating, Blackgrass (blackgrass [13]; [30]): 90 | Plant response rating, Blackgrass (blackgrass [13]; [31]): 40 | Plant response rating, Corn (corn [14]; [30]): 60 | Plant response rating, Corn (corn [14]; [31]): 10 | Plant response rating, Foxtail, Green (green foxtail [15]; [30]): 40 | Plant response rating, Foxtail, Green (green foxtail [15]; [31]): 30 | Plant response rating, Kochia (kochia [16]; [30]): 70 | Plant response rating, Kochia (kochia [16]; [31]): 50 | Plant response rating, Oat, Wild (oat, wild [17]; [30]): 30 | Plant response rating, Oat, Wild (oat, wild [17]; [31]): 10 | Plant response rating, Pigweed, Palmer (pigweed, palmer [18]; [30]): 70 | Plant response rating, Pigweed, Palmer (pigweed, palmer [18]; [31]): 20 | Plant response rating, Ragweed (ragweed [19]; [30]): 60 | Plant response rating, Ragweed (ragweed [19]; [31]): 20 | Plant response rating, Ryegrass, Italian (ryegrass, Italian [20]; [30]): 70 | Plant response rating, Ryegrass, Italian (ryegrass, Italian [20]; [31]): 20 | Plant response rating, Soybean (soybean [21]; [30]): 100 | Plant response rating, Soybean (soybean [21]; [31]): 90 | Plant response rating, Wheat (wheat [22]; [30]): 20 | Plant response rating, Wheat (wheat [22]; [31]): 10 | Plant response rating, Galium (galium; [30]): 90 | Plant response rating, Galium (galium; [31]): 40 | Plant response rating, Horseweed (horseweed; [30]): 20 | Plant response rating, Horseweed (horseweed; [31]): 0 | Plant response rating, Barnyardgrass (Flood) (barnyardgrass [23]): 0 | Plant response rating, Ducksalad (Flood) (ducksalad): 0 | Plant response rating, Rice (Flood) (rice): 0 | Plant response rating, Sedge, Umbrella (Flood) (sedge, umbrella): 0
